Two compounds from article PMC12056667 (Chemical Science, 2025) can be followed below.

The target of assay [1] is Tet(X4) (Escherichia coli, UniProt A0A3T0V9Y5). The assay is described as follows: biochemical. As to conditions: 20 μM tigecycline, 50 nM Tet(X4), 100 μM NADPH, 5 mM MgCl2, 1 μM FAD, 100 mM TAPS pH 8.5; read-out: IC50, UPLC assay. How it is done: We then tested the binding of reported type 1 TDase inhibitors to Tet(X4) (Fig. 3f, ESI Fig. S17 ^†).[33,38,39] […] We also developed a complementary endpoint activity assay where the turnover of tigecycline by Tet(X4) in a 96-well plate was quenched by addition of 1%v/v formic acid and analysed chromatographically. The peak integrals of tigecycline and its hydroxylated degradation product at 254 nm following UPLC analysis were measured to determine turnover (Fig. 5a).
[…] A 3-fold, 10-point dilution series of the substrates and inhibitors was made in DMSO with a top concentration of 10 mM, unless otherwise stated, and transferred to the enzyme solution using a CyBi-Well liquid-handling robot (CyBio), 1 μL per well. On each plate, a column of no enzyme negative controls and no inhibitor (DMSO only) positive controls were included. The plate was incubated at 30 °C for 15 min. A solution containing 100 mM TAPS (pH 8.5), 40 μM tigecycline and 200 μM NADPH was then dispensed, with 49 μL per well. The plate was incubated at 30 °C for 20 min at 600 rpm. 10 μL of 10%v/v formic acid solution was then dispensed into all wells. Samples were analysed using an ACQUITY H-Class PLUS UPLC instrument (Waters) equipped with a pre-equilibrated ACQUITY BEH C18 column ([…], […], Waters) using a gradient of 1–50%v/v acetonitrile with 0.1%v/v formic acid in water with 0.1%v/v formic acid over 1.83 minutes at a flow rate of 0.5 mL min^−1. Instrument control and data processing were performed using MassLynx V4.1 software. The peaks representing tigecycline and 11a-hydroxy-tigecycline were integrated, used to calculate % conversion and then normalised between positive and negative controls. The normalised % response was plotted as a function of log10[Inhibitor], and the IC50 determined as described above.

For assay [2], the system named is Acinetobacter spp. NT3-1 – tet(X3). The assay is described as follows: microbe, parasite or virus in culture. It counts as cell-based. As to conditions: for MIC: Acinetobacter, read-out: Tet(X) Inhibitor MIC, alone, Acinetobacter spp. NT3-1; for Combination (Antibiotic/Inhibitor) MICs: inhibitor: inhibitor in combination with tigecycline; for Combination (Antibiotic/Inhibitor) MICs: inhibitor / Combination (Antibiotic/Inhibitor) MICs: antibiotic: lowest FICI; for Combination (Antibiotic/Inhibitor) MICs: antibiotic: tigecycline in combination with the inhibitor; for FICI / Outcome: with tigecycline. As to the method: (§1) MIC tests and checkerboard assays were performed in U-bottom, 96-well microtiter plates using a modified broth microdilution protocol following CLSI guidelines. Cation-adjusted Mueller-Hinton Broth (CAMHB) was prepared fresh on the day of testing.[74] In brief, assays were set up in a total volume of 100 μL per well and titrations comprised seven 2-fold dilutions of inhibitors and ten 2-fold dilutions of tigecycline in CAMHB. Bacterial colonies were selected from an overnight culture on MHA plates (supplemented with 0.2%w/vL-arabinose for E. coli TOP10 containing pBAD-TOPO-Tet(X4)) and were suspended in 0.9% saline solution to achieve a 0.5 McFarland standard. A 100 μL aliquot of this suspension was then diluted into 9.9 mL of CAMHB to yield approximately 1.5 × 10^6 cfu mL^−1. 50 μL of the suspension was then added to each well of a microtiter plates. Plates were incubated at 37 °C for 18 h. At least 2 replicates were conducted for each combination. E. coli TOP10 + pBAD-TOPO-Tet(X4) cells were grown in the absence and presence of 0.2%w/vL-arabinose. Analysis of the MIC and checkerboard results were carried out by visual inspection of growth, with and without resazurin dye, an oxidation–reduction indicator.[75] As a measure of synergy, fractional inhibitory concentration index (FICI) was calculated as FICA + FICB, where FICA and FICB are the MICcombination/MICalone for each agent, respectively.[76] Results were interpreted as follows: synergistic (<0.5), indifferent (1.0–4.0) or antagonistic (>4.0).[64] In cases where the MIC exceeded or was below the measured range, the borderline value was taken to calculate the FIC index.

Assay [3] concerns Salmonella enterica T-2a – tet(X4). The assay is described as follows: microbe, parasite or virus in culture. As to conditions: for MIC: Salmonella enterica, read-out: Tet(X) Inhibitor MIC; for Combination (Antibiotic/Inhibitor) MICs: inhibitor: inhibitor in combination with tigecycline; for Combination (Antibiotic/Inhibitor) MICs: inhibitor / Combination (Antibiotic/Inhibitor) MICs: antibiotic: lowest FICI; for Combination (Antibiotic/Inhibitor) MICs: antibiotic: tigecycline in combination with the inhibitor; for FICI / Outcome: with tigecycline. The format is cell-based. As to the method:
as §1

Assay [4] has as its system Acinetobacter baumannii NT5-1 – tet(X5). The assay is described as follows: microbe, parasite or virus in culture. The format is cell-based. As to conditions: for MIC: Acinetobacter baumannii, read-out: Tet(X) Inhibitor MIC; for Combination (Antibiotic/Inhibitor) MICs: inhibitor: inhibitor in combination with tigecycline; for Combination (Antibiotic/Inhibitor) MICs: inhibitor / Combination (Antibiotic/Inhibitor) MICs: antibiotic: lowest FICI; for Combination (Antibiotic/Inhibitor) MICs: antibiotic: tigecycline in combination with the inhibitor; for FICI / Outcome: with tigecycline. How it is done: as §1, with “In brief, assays were set up in a total volume of 100 μL per well and titrations comprised seven 2-fold dilutions of inhibitors and ten 2-fold dilutions of tigecycline in CAMHB.” left out

Assay [5] deals with Escherichia coli T-24a – tet(X4). The assay is described as follows: microbe, parasite or virus in culture. It counts as cell-based. As to conditions: for MIC: Escherichia coli, read-out: Tet(X) Inhibitor MIC, alone, E. coli T-24a; for Combination (Antibiotic/Inhibitor) MICs: inhibitor: inhibitor in combination with tigecycline; for Combination (Antibiotic/Inhibitor) MICs: inhibitor / Combination (Antibiotic/Inhibitor) MICs: antibiotic: lowest FICI; for Combination (Antibiotic/Inhibitor) MICs: antibiotic: tigecycline in combination with the inhibitor; for FICI / Outcome: with tigecycline. How it is done:
as §1, with “In brief, assays were set up in a total volume of 100 μL per well and titrations comprised seven 2-fold dilutions of inhibitors and ten 2-fold dilutions of tigecycline in CAMHB.” left out

For `Cc1c2c(c(O)c3c(O)cccc13)C(=O)[C@]1(O)C(=O)C(C(N)=O)=C(O)[C@@H](N(C)C)[C@@H]1C2` [Anhydrotetracycline], in assay [1], the IC50 (as a rule, the point on the concentration scale where inhibition reaches its midpoint) turned out to be 2.6 ± 0.3 µM. For the same compound, in assay [2], the MIC was found to be 2 µg/mL, the “Combination (Antibiotic/Inhibitor) MICs: inhibitor” value was determined as 0.25 µg/mL, the “Combination (Antibiotic/Inhibitor) MICs: antibiotic” value worked out at 0.5 µg/mL and the FICI is 0.3. For the same compound, in assay [2], the Outcome result is “synergy (synergy (< 0.5))”. For the same compound, in assay [3], the MIC amounted to 32 µg/mL, the “Combination (Antibiotic/Inhibitor) MICs: inhibitor” value was 16 µg/mL, the “Combination (Antibiotic/Inhibitor) MICs: antibiotic” value was determined as 8 µg/mL and the FICI is reported as 0.8. Moreover, the Outcome result in assay [3] is reported as “indifferent (indifferent (0.5-4.0))”. Besides, in assay [4], the MIC was 16 µg/mL, the “Combination (Antibiotic/Inhibitor) MICs: inhibitor” value is 4 µg/mL, the “Combination (Antibiotic/Inhibitor) MICs: antibiotic” value is 2 µg/mL and the FICI is recorded as 0.5. Besides, the Outcome result in assay [4] was “indifferent (indifferent (0.5-4.0))”. Further, in assay [5], the MIC stood at 64 µg/mL, the “Combination (Antibiotic/Inhibitor) MICs: inhibitor” value was 32 µg/mL, the “Combination (Antibiotic/Inhibitor) MICs: antibiotic” value is 4 µg/mL and the FICI is 0.8. Besides, the Outcome result in assay [5] was “indifferent (indifferent (0.5-4.0))”.

Consider `O=C(c1ccc(OCCN2CCCCC2)cc1)c1c(-c2ccc(O)cc2)sc2cc(O)ccc12` [Raloxifene], for which the IC50 in assay [1] stood at 8.3 ± 2.1 µM. Besides, in assay [2], the MIC was determined as 4 µg/mL, the “Combination (Antibiotic/Inhibitor) MICs: inhibitor” value is 2 µg/mL, the “Combination (Antibiotic/Inhibitor) MICs: antibiotic” value stood at 2 µg/mL and the FICI was 1. For the same compound, in assay [2], the Outcome result is “indifferent (indifferent (0.5-4.0))”. Moreover, in assay [3], the MIC is greater than 128 µg/mL, the “Combination (Antibiotic/Inhibitor) MICs: inhibitor” value was 128 µg/mL, the “Combination (Antibiotic/Inhibitor) MICs: antibiotic” value turned out to be 16 µg/mL and the FICI amounted to 1.5. Also, in assay [3], the Outcome entry is given as “indifferent (indifferent (0.5-4.0))”. In assay [4], the MIC was greater than 128 µg/mL, the “Combination (Antibiotic/Inhibitor) MICs: inhibitor” value is 128 µg/mL, the “Combination (Antibiotic/Inhibitor) MICs: antibiotic” value was determined as 2 µg/mL and the FICI is 1.3. Besides, the Outcome result in assay [4] is on record as “indifferent (indifferent (0.5-4.0))”. In addition, in assay [5], the MIC turned out to be 256 µg/mL, the “Combination (Antibiotic/Inhibitor) MICs: inhibitor” value was 128 µg/mL, the “Combination (Antibiotic/Inhibitor) MICs: antibiotic” value came out at 8 µg/mL and the FICI came out at 1. The Outcome result in assay [5] was “indifferent (indifferent (0.5-4.0))”.
